# Measured values: ChEMBL document CHEMBL1201862, “PubChem BioAssay data set” (2004)
# Calls of active or inactive are those of the source.
# What was measured:
# [1] = target: Heat shock protein HSP 90-alpha (Homo sapiens, UniProt P07900); type: functional, organism-based
# [2] = reduction of Shn3 3'UTR-driven luciferase in osteoblasts – cell-based, Clone20 osteoblasts, firefly luciferase, cherry-picked, dose response (AID 624132); type: functional;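 further: firefly luciferase luminescence from reporter carrying the Shn3 3'UTR in osteoblasts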
# [3] = loss of viability in HepG2 cells – cell-based, CellTiter-Glo, cherry-picked, cytotoxicity control for Shn3 inhibitor project, dose response (AID 624134); type: functional
# [4] = non-specific 3'UTR reporter inhibition in Clone20-Shn3RL – cell-based, Renilla luciferase, cherry-picked, counter-screen for Shn3 inhibitor project, dose response (AID 624133); type: functional
# [5] = Fluorescence-based cell-based high throughput dose response assay for inhibitors of the interaction of nucleotide-binding oligomerization domain containing 2 (NOD2) and the receptor-interacting serine-threonine kinase 2 (RIPK2).; type: functional; details: Homo sapiens
# [6] = target: Beta Lactamase (Pseudomonas aeruginosa, UniProt Q932Y6); assay: BLA reporter interference, concentration series – BLA reporter cells, FRET fluorescence, artefact control for NOD2-RIPK2 interaction inhibitor project, dose response (AID 651552); type: functional, cell-based
# [7] = NIH-3T3 fibroblast cytotoxicity, dose response, cytotoxicity control, cell-based, fluorescence, Alamar Blue, secondary assay (AID 2327); type: functional;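 further: NIH-3T3 mouse fibroblasts cultured with fluconazole at 8 µg/mL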
# [8] = cells; type: functional, cell-based
# [9] = target: T1, Heat shock factor protein 1 (Mus musculus, UniProt P38532); assay: decrease of HSF1-responsive luciferase luminescence – cell-based, NIH3T3, dose retest, confirmation (AID 2382); type: functional;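 further: NIH3T3 fibroblasts with HSF1-driven luciferase reporter stressed by proteasome inhibitor MG132; luminescence from HSF1-driven luciferase expression after 8 hours of MG132 stress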
# T1 sequence (P38532 whole entry): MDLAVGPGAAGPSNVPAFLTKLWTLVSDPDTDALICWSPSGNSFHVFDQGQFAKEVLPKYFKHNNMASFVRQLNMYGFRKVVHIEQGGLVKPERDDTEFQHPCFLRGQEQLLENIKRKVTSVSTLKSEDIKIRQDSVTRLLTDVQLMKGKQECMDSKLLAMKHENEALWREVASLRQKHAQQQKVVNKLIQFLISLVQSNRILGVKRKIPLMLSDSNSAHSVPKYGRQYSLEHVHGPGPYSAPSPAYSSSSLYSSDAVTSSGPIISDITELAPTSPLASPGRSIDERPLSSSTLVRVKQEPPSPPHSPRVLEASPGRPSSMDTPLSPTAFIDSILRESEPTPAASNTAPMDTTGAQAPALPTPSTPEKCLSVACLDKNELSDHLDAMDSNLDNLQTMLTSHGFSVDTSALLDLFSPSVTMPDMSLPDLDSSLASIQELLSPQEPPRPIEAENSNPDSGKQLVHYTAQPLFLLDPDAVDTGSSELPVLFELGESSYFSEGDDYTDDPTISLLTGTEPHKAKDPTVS
# [10] = fluconazole-exposed Candida albicans growth modulators – fluorescence, retest, confirmation (AID 2467); type: functional, cell-based
# [11] = cells; type: functional, cell-based; remark: listed apart in the source
# [12] = tested on: INS1; assay: INS-1E survival protection against cytokine death – cell-based, luminescence, retest, dose response (AID 449756); type: functional; details: Rattus norvegicus;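 further: cell death triggered by IL-1 beta plus TNF-alpha plus IFN-gamma mixture; protective hits raise ATP signal compared with cytokine alone wells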
# [13] = NIH3T3 cell viability loss, ATP content – CellTiter-Glo luminescence, cherry-pick, set 2, cytotoxicity control for HSP40 inhibitor project, dose response (AID 624265); type: functional
# [14] = target: T2, ATP-dependent translocase ABCB1 (Homo sapiens, UniProt P08183); assay: inhibition of BCRP-mediated JC-1 efflux – Ig-MXP3 cells, flow cytometry, set 2, dose response (AID 504566); type: functional; details: read-out: EC50_MICROM_;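 further: flow cytometry median green fluorescence of retained JC-1 dye; potency of efflux pump inhibition measured as rising substrate retention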
# [15] = target: T2, ATP-dependent translocase ABCB1; assay: P-gp JC-1 efflux blockade concentration-response – Jurkat-DNR cells, flow cytometry, set 2, dose response (AID 504569); type: functional; details: read-out: EC50_MICROM_;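 further: potency of pump inhibitors that raise cellular JC-1 green fluorescence up to the nicardipine level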
# [16] = microbe, parasite or virus in culture; type: functional; details: Mycobacterium tuberculosis
# [17] = target: T3, Sentrin-specific protease 1 (Homo sapiens, UniProt Q9P0U3); assay: SENP1 catalytic domain blockers, concentration series – biochemical, kinetic FRET, dose response (AID 651697); type: functional; details: read-out: IC50_Mean
# [18] = target: T3, Sentrin-specific protease 1; assay: Dose response confirmation of small molecule inhibitors of the catalytic domain of the SUMO protease, SENP1 in a FRET assay.; type: functional; details: read-out: IC50_Mean
# [19] = viability loss in HeLa cells – cytotoxicity control for MgcRacGAP inhibitor project, dose response (AID 624300); type: functional
# [20] = target: T4, Rac GTPase-activating protein 1 (Homo sapiens, UniProt Q9H0H5); assay: blockers of MgcRacGAP-driven Rac1 GTP hydrolysis – biochemical, ADP Hunter fluorescence, primary and confirmatory, confirmation (AID 624330); type: functional
# T4 sequence (Q9H0H5 whole entry): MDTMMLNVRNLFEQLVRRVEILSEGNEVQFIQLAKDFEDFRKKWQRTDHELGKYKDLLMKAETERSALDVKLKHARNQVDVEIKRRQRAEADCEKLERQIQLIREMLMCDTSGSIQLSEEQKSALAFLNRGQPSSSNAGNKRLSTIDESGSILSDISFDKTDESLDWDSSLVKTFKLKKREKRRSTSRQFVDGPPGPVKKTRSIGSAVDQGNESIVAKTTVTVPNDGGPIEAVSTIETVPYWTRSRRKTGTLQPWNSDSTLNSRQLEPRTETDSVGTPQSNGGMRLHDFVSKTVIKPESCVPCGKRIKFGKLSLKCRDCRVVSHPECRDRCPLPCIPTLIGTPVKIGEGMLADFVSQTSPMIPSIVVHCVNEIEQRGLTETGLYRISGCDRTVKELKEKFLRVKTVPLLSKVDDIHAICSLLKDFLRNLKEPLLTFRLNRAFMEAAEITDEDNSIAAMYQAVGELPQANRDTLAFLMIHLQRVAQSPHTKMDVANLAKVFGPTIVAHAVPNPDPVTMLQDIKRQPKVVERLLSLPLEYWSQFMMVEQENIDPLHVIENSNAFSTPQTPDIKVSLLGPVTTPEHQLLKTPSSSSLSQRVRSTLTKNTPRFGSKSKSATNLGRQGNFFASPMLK
# [21] = target: T5, Corticotropin-releasing factor receptor 2/Corticotropin-releasing factor-binding protein (Homo sapiens, UniProt P24387+Q13324); assay: Dose Response confirmation of uHTS hits for small molecule antagonists of the CRF-binding protein and CRF-R2 receptor complex.; type: functional; details: read-out: IC50_Mean
# T5 sequence (Q13324 whole entry): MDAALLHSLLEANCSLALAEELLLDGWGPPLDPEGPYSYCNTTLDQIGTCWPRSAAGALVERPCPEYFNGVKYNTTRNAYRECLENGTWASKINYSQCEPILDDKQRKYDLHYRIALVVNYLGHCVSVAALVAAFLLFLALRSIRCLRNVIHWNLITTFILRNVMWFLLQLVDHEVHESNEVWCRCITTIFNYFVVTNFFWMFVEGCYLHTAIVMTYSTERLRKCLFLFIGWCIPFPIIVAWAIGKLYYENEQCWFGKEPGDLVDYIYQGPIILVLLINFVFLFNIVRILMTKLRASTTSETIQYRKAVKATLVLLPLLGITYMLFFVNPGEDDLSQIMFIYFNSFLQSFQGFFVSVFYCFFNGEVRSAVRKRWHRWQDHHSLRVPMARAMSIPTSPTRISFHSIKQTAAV
# T5 sequence (P24387 whole entry): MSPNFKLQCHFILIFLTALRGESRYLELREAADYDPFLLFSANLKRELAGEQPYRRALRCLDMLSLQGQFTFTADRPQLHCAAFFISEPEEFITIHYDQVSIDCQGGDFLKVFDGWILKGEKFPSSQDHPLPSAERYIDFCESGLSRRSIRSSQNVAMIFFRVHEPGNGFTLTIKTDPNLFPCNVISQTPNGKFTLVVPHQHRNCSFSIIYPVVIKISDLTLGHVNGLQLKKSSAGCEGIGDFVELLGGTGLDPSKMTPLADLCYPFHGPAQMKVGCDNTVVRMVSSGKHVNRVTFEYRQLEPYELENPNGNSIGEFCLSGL
# [22] = target: T5, Corticotropin-releasing factor receptor 2/Corticotropin-releasing factor-binding protein; assay: activators of CRF receptor 2 with binding protein – uHTS hits, confirmation (AID 602473); type: functional; details: read-out: EC50_Mean
# [23] = blockers of CRF-binding protein–CRF-R2 complex – cell-based, uHTS hits, 384-well, dose response (AID 651639); type: functional, Homo sapiens; details: read-out: IC50_Mean
# [24] = target: ADP-ribosylation factor GTPase-activating protein 1 (Rattus norvegicus, UniProt Q62848); assay: Fluorescence polarization-based biochemical high throughput dose response screening assay to identify inhibitors of ADP-ribosylation factor GTPase activating protein 1 (ARFGAP1).; type: functional
# [25] = target: Mitogen-activated protein kinase 10 (Homo sapiens, UniProt P53779); assay: Dose response biochemical screening assay for inhibitors of c-Jun N-Terminal Kinase 3 (JNK3). [Related pubchem assays: 746 ]
# [26] = target: Nuclear receptor subfamily 5 group A member 2 (Homo sapiens, UniProt O00482); type: functional, cell-based;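 further: HEK293T cells transfected with LRH-1 and a StAR promoter luciferase reporter; potency for inhibitors that lower LRH-1 driven reporter light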
# [27] = target: Steroidogenic factor 1 (Homo sapiens, UniProt Q13285); assay: Counterscreen for inverse agonists of the liver receptor homolog-1 (LRH-1; NR5A2): Luminescence-based cell-based high throughput dose response assay to identify inverse agonists of the Steroidogenic Factor 1 Nuclear Receptor (SF1; NR5A1).; type: functional
# [28] = nonselective StAR promoter luciferase inhibitors – cell-based, luminescence, luciferase reporter, counter-screen for LRH-1 inverse agonist project, dose response (AID 651969); type: functional
# [29] = target: T6, Probable nicotinate-nucleotide adenylyltransferase (Staphylococcus aureus (strain N315), UniProt P65502); type: functional, Staphylococcus aureus subsp. aureus N315;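 on IC50 Mean: confirmatory dose-response retesting of NadD inhibitor hits first found in an ultra-high-throughput screen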
# [30] = target: T6, Probable nicotinate-nucleotide adenylyltransferase; type: functional, Staphylococcus aureus subsp. aureus N315; details: read-out: IC50_Mean
# T2 sequence (P08183 whole entry): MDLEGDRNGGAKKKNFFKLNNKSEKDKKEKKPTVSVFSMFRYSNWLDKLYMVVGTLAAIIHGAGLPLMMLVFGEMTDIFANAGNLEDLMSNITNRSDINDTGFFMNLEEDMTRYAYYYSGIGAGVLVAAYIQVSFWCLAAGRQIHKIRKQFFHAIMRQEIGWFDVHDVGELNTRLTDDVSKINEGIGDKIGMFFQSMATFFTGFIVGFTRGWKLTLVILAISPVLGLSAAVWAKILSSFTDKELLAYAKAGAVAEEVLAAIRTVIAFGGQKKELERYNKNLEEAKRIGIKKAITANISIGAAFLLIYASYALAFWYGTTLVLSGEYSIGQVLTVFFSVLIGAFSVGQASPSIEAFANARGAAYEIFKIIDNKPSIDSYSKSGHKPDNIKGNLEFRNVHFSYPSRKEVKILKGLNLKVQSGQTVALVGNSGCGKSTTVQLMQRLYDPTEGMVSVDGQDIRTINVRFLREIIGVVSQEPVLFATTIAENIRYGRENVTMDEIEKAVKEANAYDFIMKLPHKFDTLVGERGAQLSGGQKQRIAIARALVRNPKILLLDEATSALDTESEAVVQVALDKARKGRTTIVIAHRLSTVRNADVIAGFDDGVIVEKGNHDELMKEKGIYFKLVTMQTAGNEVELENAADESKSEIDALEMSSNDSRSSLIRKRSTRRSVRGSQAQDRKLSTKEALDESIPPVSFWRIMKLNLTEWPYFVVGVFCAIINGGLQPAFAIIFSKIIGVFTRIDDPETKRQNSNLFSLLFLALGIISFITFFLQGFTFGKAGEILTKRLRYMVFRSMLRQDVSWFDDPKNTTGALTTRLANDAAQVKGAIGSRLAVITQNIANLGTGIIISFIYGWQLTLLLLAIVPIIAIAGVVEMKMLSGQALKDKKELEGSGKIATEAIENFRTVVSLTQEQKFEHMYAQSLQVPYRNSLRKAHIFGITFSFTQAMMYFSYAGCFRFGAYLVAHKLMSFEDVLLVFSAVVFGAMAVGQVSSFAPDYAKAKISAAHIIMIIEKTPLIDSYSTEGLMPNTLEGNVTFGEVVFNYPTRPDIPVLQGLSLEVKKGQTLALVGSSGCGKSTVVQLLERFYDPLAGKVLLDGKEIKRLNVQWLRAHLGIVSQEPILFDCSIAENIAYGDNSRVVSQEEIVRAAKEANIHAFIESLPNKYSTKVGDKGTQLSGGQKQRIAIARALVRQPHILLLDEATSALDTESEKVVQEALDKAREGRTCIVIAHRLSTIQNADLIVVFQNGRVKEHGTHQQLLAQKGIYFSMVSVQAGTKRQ
# T3 sequence (Q9P0U3 whole entry, the tested form may be a part): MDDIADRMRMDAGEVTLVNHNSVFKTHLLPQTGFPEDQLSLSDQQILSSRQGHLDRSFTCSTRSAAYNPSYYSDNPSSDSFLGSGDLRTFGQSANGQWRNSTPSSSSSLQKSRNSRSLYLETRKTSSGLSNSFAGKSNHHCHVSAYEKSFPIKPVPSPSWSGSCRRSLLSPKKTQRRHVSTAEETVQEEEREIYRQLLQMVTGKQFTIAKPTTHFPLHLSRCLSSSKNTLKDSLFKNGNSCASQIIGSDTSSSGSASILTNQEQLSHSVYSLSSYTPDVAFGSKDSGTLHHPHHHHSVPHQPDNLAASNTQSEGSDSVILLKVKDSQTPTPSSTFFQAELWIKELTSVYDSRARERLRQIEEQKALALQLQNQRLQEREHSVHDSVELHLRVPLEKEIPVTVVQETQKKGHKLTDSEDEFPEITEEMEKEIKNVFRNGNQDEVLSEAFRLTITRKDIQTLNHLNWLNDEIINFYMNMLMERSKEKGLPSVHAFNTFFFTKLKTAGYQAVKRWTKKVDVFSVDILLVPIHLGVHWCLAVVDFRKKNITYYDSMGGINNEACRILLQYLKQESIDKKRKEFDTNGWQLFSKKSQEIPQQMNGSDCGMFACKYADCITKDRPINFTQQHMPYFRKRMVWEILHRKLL
# T6 sequence (P65502 whole entry): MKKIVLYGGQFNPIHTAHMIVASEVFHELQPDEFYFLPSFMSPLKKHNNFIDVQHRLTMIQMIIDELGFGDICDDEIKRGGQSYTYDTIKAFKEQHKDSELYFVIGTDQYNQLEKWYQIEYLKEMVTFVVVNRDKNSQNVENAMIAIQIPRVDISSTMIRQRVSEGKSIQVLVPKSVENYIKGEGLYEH
# Sequence of ADP-ribosylation factor GTPase-activating protein 1 (Q62848 whole entry): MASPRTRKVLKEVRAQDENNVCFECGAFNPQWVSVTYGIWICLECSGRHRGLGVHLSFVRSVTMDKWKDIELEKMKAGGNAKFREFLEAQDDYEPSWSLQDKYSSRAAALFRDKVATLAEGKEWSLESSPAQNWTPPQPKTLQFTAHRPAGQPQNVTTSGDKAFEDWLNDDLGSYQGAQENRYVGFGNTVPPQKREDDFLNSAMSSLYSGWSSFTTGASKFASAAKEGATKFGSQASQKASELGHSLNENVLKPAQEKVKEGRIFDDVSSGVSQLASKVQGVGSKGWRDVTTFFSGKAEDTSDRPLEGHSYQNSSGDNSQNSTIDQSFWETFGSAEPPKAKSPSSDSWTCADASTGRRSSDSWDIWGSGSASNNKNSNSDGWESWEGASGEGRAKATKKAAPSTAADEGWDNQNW
# Sequence of Beta Lactamase (Q932Y6 whole entry): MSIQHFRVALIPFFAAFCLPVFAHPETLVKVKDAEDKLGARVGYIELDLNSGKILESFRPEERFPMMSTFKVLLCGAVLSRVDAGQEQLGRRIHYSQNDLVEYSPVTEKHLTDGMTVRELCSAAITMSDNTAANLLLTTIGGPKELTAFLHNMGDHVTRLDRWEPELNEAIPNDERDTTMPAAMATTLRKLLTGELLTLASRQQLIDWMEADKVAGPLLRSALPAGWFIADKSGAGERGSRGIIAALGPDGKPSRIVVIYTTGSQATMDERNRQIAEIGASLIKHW
# Sequence of Nuclear receptor subfamily 5 group A member 2 (O00482 whole entry): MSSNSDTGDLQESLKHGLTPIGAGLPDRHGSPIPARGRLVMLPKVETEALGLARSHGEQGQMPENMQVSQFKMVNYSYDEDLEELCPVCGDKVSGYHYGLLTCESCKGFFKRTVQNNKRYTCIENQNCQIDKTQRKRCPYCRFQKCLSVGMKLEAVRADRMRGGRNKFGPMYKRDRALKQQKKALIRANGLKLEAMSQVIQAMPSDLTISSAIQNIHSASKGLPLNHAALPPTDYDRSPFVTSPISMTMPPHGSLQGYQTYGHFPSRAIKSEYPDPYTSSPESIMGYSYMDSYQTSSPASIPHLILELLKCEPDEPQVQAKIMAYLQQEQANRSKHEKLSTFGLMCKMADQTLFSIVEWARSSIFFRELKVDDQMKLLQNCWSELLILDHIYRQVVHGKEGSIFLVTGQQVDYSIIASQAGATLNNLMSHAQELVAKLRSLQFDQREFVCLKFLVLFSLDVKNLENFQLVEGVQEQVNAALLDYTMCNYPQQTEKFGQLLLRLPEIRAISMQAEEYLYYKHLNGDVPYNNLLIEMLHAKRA
# Sequence of Mitogen-activated protein kinase 10 (P53779 whole entry): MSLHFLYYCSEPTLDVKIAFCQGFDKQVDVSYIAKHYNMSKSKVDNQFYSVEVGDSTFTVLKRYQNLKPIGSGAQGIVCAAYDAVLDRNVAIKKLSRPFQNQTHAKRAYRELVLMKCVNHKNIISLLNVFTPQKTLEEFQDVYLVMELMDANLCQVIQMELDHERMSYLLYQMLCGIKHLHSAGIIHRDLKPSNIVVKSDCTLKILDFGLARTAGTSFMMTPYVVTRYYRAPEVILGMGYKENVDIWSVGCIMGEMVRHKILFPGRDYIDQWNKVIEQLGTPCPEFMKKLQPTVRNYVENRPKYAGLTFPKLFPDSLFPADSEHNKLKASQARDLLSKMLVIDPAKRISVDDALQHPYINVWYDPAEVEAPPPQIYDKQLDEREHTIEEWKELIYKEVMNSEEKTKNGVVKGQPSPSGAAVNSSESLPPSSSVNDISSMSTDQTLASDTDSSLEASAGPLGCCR
# Sequence of Steroidogenic factor 1 (Q13285 whole entry): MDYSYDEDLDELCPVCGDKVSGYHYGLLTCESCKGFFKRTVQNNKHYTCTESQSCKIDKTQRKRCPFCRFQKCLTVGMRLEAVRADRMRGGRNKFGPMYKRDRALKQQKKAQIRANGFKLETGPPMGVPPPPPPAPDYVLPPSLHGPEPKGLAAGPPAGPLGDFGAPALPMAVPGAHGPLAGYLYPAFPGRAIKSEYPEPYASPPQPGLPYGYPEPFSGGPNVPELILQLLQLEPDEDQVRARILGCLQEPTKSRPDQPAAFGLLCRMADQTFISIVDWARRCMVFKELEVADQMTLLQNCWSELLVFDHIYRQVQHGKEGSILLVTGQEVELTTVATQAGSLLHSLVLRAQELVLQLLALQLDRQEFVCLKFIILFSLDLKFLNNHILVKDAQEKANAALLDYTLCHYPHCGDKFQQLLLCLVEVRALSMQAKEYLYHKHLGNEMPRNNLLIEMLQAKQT
smiles,measurement,setting,value
C=C1C(=O)C23CCC4C(C)(C(=O)OC)CCCC4(C)C2CCC1(O)C3 (stereo unspecified),AC50,[1],1.27 µM (active)
same,AC50,[2],0.976 µM (active)
same,AC50,[3],5.71 µM (active)
same,AC50,[4],1.66 µM (active)
same,IC50,[5],1.36 µM (active)
same,IC50,[6],46.8 µM (inactive)
Oc1ccc(Br)cc1/C=N/Nc1ccccn1,EC50,[7],3.83 µM (inconclusive)
same,EC50,[8],6.83 µM (active)
same,EC50,[9],3.19 µM (active)
same,EC50,[10],1.51 µM (active)
same,EC50,[11],22.5 µM (active)
same,AC50,[1],1.32 µM (active)
same,AC50,[12],1.98 µM (active)
same,AbsAC35_uM,[13],82.89 µM
Cc1cc(N2CCN(C(=O)c3ccoc3)CC2)n2nc(-c3ccc(Br)cc3)cc2n1,EC50,[14],2.08 µM (active)
same,EC50,[15],11.2 µM (active)
C/C(=N\NC(=O)c1ccc(O)cc1)c1ccc2c(c1)Nc1ccccc1S2,CC50,[16],21.2 µM (active)
same,IC50,[17],7.06 µM (active)
same,IC50,[18],4.61 µM (active)
same,CC50,[19],86.9 µM (active)
same,IC50,[20],35.3 µM (active)
COc1cccc(C2CC(c3cccs3)=NN2C(=O)c2ccco2)c1O (stereo unspecified),IC50,[21],5.3 µM (active)
same,EC50,[22],> 53 µM (inactive)
same,IC50,[23],1.51 µM (active)
Cc1cc(=O)oc2cc(OCc3ccc(C(=O)OCC(=O)Nc4ccccc4OC(F)F)cc3)ccc12,IC50,[24],31.3 µM (inactive)
O=C(NCc1cccnc1)c1cccc2c1C(=O)N(C1CCCCC1)C2,IC50,[25],27.4 µM (not active)
same,IC50,[26],17.8 µM (inactive)
same,IC50,[27],3.71 µM (active)
same,IC50,[28],35.9 µM (inactive)
Cc1nn(-c2ccccc2)c(N2CCCC2)c1/C=N/NC(=O)c1cccc(S(=O)(=O)Nc2ccc(Cl)cc2)c1,IC50,[29],8.05 µM (active)
same,IC50,[30],28.9 µM (active)
